Consider 13 compounds from US11040981B2, “Pyrrolotriazine compounds and methods of inhibiting TAM kinases” (Syros Pharmaceuticals, Inc., priority 2017, dated 2021).

A value given as a limit tells only on which side of the number the result lay.

One test deals with T1, FLT3 (Homo sapiens, UniProt P36888).
T1 sequence (P36888 27-993): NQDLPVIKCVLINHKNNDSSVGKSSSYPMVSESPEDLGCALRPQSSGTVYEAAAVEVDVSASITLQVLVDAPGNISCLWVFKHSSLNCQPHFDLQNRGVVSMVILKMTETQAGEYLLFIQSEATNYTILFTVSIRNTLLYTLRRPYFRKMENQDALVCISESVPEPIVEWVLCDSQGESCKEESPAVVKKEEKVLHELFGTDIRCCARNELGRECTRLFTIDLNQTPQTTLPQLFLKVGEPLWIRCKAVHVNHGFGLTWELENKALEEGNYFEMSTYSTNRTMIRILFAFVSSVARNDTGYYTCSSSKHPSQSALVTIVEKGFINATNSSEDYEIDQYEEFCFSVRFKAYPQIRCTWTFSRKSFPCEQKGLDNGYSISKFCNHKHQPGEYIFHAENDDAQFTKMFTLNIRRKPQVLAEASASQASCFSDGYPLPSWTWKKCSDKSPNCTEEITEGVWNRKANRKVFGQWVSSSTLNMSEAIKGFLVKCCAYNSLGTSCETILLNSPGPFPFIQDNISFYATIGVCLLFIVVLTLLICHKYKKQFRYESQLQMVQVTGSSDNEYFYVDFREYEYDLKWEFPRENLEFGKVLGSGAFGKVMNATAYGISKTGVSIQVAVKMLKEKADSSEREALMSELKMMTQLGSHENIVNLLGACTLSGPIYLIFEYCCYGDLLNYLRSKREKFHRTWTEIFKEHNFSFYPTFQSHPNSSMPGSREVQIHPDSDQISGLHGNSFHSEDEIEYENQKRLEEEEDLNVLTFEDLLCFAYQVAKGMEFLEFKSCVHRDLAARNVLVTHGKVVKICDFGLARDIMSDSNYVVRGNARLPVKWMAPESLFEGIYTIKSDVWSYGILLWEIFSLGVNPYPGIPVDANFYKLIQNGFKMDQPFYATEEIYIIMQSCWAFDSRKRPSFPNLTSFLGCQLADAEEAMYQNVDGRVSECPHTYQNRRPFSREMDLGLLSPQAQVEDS
Briefly: TR-FRET kinase activity assay, FLT3. The settings on record: ATP at Km, 60 minutes. The class given is biochemical. The method, boiled down:
(§1)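 Each kinase phosphorylated a fluorescent-labelled tyrosine peptide in 50 mM HEPES pH 7.5, 10 mM MgCl2, 1 mM EGTA, 0.01% Brij 35, 1 mM DTT at RT, with ATP at Km for that enzyme. After 60 min, EDTA quench and Eu-anti-phosphotyrosine antibody (30 min, dark); IC50 from TR-FRET decrease.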
Background: In TR-FRET formats the signal depends on donor and acceptor labels being close together.

The target of another test is T2, MERTK (Homo sapiens, UniProt Q12866).
T2 sequence (Q12866 21-999): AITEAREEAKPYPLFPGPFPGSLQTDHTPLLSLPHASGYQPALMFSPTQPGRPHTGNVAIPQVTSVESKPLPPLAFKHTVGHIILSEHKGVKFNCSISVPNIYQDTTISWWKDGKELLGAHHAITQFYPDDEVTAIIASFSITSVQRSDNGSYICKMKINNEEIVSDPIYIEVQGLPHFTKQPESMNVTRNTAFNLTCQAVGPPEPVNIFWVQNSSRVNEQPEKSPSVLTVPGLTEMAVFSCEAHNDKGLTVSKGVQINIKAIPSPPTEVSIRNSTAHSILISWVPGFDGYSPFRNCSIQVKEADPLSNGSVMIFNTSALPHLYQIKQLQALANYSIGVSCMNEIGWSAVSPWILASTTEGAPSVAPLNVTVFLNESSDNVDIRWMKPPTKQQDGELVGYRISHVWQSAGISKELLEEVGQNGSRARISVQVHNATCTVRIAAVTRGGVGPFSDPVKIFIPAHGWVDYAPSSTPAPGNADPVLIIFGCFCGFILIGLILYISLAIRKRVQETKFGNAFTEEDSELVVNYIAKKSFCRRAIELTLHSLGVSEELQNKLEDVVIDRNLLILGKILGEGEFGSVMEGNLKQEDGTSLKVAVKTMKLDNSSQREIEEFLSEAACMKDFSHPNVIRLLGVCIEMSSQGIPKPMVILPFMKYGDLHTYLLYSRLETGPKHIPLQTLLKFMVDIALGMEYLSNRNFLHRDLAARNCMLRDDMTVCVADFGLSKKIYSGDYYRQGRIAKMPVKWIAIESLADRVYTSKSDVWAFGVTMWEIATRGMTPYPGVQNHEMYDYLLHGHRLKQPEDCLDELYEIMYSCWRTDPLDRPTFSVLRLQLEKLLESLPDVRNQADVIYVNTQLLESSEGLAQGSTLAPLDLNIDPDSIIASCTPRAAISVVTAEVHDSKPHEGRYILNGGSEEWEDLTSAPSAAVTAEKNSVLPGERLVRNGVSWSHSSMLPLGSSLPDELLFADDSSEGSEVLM
Nature of the test: TR-FRET kinase activity assay, MERTK. Conditions: for IC50: TR-FRET activity assay, ATP at Km, 60 minutes, read-out: Mer IC50. The class given is biochemical. A digest of the protocol: as §1

The mark [1] stands for this setting: ratio of Mer to FLT3: FLT3 IC50/Mer IC50.
[2] abbreviates: ratio calculated as FLT3 IC50/Mer IC50.

As a reminder, the IC50 is the point on the concentration scale where inhibition reaches its midpoint. In the case of `COC[C@H](C)Nc1ncc2c(-c3ccc([C@H](C)N4CCOCC4)cc3)cc([C@H]3CC[C@H](O)CC3)n2n1` [Compound 157], the half-maximal inhibitory concentration (IC50) against FLT3 and on MERTK was no more than 100 nM in each case. In addition, the “FLT3/Mer ratio (FLT3 IC50/Mer IC50)” value on MERTK (setting [1]) is “++ (“++” represents a ratio of between 10 and 100)”.

As for `COC[C@H](C)N(C)c1ncc2c(-c3ccnc(C)c3)cc([C@H]3CC[C@H](OC)CC3)n2n1` [Compound 176, 7-((trans)-4-methoxycyclohexyl)-N-((S)-1-methoxypropan-2-yl)-N-methyl-5-(2-methylpyridin-4-yl)pyrrolo[2,1-f][1,2,4]triazin-2-amine], the IC50 against FLT3 and at MERTK was 1000 to 10000 nM in each case. Also, the “FLT3/Mer ratio (FLT3 IC50/Mer IC50)” value at MERTK (setting [1]) is “+ (“+” represents a ratio of >2.0 and <10)”.

Consider `COC[C@H](C)Nc1ncc2c(-c3ccc(CN4CCN(C(C)=O)CC4)cc3)cc([C@H]3CC[C@H](O)CC3)n2n1` [Compound 150], for which the IC50 is 100 to 1000 nM against FLT3 and no more than 100 nM at MERTK. Further, on MERTK (setting [1]), the “FLT3/Mer ratio (FLT3 IC50/Mer IC50)” value is “++ (“++” represents a ratio of between 10 and 100)”.

As to `COC[C@H](C)Nc1ncc2c(-c3ccc(C4(N5CCOCC5)CC4)cc3)cc([C@H]3CC[C@H](O)CC3)n2n1` [Compound 184], the IC50 on FLT3 was 100 to 1000 nM; at MERTK, no more than 100 nM. Also, on MERTK (setting [1]), the “FLT3/Mer ratio (FLT3 IC50/Mer IC50)” value is “++ (“++” represents a ratio of between 10 and 100)”.

As to `C[C@@H](COC(F)F)Nc1ncc2c(-c3ccnc(N4CCOC(C(C)(C)O)C4)c3)cc([C@H]3CC[C@H](O)CC3)n2n1` (stereo partly drawn) [Compound 598], the IC50 against FLT3 is 100 to 1000 nM; at MERTK it was no more than 100 nM. Moreover, the “FLT3/Mer ratio (FLT3 IC50/Mer IC50)” value on MERTK (setting [2]) is on record as “+++ (“+++” represents a ratio of >100)”.

`COCC(C)Nc1ncc2c(-c3ccc(C(C)N4CCCC4)cc3)cc(C3CCC(O)CC3)n2n1` (stereo not drawn) [Compound 166]: the IC50 against FLT3 and on MERTK was no more than 100 nM each time. Besides, the “FLT3/Mer ratio (FLT3 IC50/Mer IC50)” value at MERTK (setting [1]) is “++ (“++” represents a ratio of between 10 and 100)”.

`COC[C@H](C)Nc1ncc2c(-c3cnn(C(C)(C)c4nnc(C)s4)c3)cc([C@H]3CC[C@H](O)CC3)n2n1` [Compound 625]: the IC50 against FLT3 is 100 to 1000 nM; on MERTK, no more than 100 nM. Also, the “FLT3/Mer ratio (FLT3 IC50/Mer IC50)” value on MERTK (setting [2]) is on record as “+++ (“+++” represents a ratio of >100)”.

Take `CCC1(O)CCC(c2cc(-c3cnn(C4COC4)c3)c3cnc(NC(C)COC)nn23)CC1` (stereo not drawn) [Compound 615]: the results for the IC50 at FLT3 and on MERTK were 100 to 1000 nM and no more than 100 nM, respectively. For the same compound, the “FLT3/Mer ratio (FLT3 IC50/Mer IC50)” value at MERTK (setting [2]) is reported as “+++ (“+++” represents a ratio of >100)”.

As for `COC[C@H](C)Nc1ncc2c(-c3cnn(C(C)(C)c4ncc(C)o4)c3)cc(C3CCC(O)CC3)n2n1` (stereo partly drawn) [Compound 628], the IC50 against FLT3 was 1000 to 10000 nM; on MERTK, no more than 100 nM. The “FLT3/Mer ratio (FLT3 IC50/Mer IC50)” value at MERTK (setting [2]) was “+++ (“+++” represents a ratio of >100)”.

In the case of `COC[C@H](C)Nc1ncc2c(N3CC4(COC4)CC3=O)cc([C@H]3CC[C@H](O)CC3)n2n1` [Compound 178], the IC50 against FLT3 is 1000 to 10000 nM; at MERTK, no more than 100 nM. Besides, the “FLT3/Mer ratio (FLT3 IC50/Mer IC50)” value on MERTK (setting [1]) is recorded as “+++ (“+++” represents a ratio of >100)”.

Consider `COC[C@H](C)Nc1ncc2c(-c3ccc(CN4CCOCC4)cc3)cc([C@H]3CC[C@@H](O)CC3)n2n1` [Compound 163, (cis)-4-(2-(((S)-1-methoxypropan-2-yl)amino)-5-(4-(morpholinomethyl)phenyl)pyrrolo[2,1-f][1,2,4]triazin-7-yl)cyclohexanol], for which the values for the half-maximal inhibitory concentration (IC50) on FLT3 and on MERTK were 100 to 1000 nM and no more than 100 nM, respectively. Further, at MERTK (setting [1]), the “FLT3/Mer ratio (FLT3 IC50/Mer IC50)” value is “++ (“++” represents a ratio of between 10 and 100)”.

On to `COC[C@H](C)Nc1ncc2c([C@H]3CC[C@@H](C(=O)N4CCN(C)CC4)CC3)cc([C@H]3CC[C@H](O)CC3)n2n1` [Compound 607], for which the results for the IC50 against FLT3 and at MERTK were 1000 to 10000 nM and no more than 100 nM, respectively. The “FLT3/Mer ratio (FLT3 IC50/Mer IC50)” value at MERTK (setting [2]) is “+++ (“+++” represents a ratio of >100)”.

As for `COC[C@H](C)Nc1ncc2c(-c3cccc(CN4CCCC4)c3)cc([C@H]3CC[C@H](O)CC3)n2n1` [Compound 179], the IC50 was 100 to 1000 nM at FLT3 and no more than 100 nM on MERTK. Moreover, at MERTK (setting [1]), the “FLT3/Mer ratio (FLT3 IC50/Mer IC50)” value was “+++ (“+++” represents a ratio of >100)”.
